# Laboratory results reported in patent US20230295200A1 (REGENTS OF THE UNIVERSITY OF MICHIGAN, priority 2022, published 2023).
# Target: T1, STAT6 protein (Homo sapiens, UniProt P42226)
# T1 sequence (P42226 1-847): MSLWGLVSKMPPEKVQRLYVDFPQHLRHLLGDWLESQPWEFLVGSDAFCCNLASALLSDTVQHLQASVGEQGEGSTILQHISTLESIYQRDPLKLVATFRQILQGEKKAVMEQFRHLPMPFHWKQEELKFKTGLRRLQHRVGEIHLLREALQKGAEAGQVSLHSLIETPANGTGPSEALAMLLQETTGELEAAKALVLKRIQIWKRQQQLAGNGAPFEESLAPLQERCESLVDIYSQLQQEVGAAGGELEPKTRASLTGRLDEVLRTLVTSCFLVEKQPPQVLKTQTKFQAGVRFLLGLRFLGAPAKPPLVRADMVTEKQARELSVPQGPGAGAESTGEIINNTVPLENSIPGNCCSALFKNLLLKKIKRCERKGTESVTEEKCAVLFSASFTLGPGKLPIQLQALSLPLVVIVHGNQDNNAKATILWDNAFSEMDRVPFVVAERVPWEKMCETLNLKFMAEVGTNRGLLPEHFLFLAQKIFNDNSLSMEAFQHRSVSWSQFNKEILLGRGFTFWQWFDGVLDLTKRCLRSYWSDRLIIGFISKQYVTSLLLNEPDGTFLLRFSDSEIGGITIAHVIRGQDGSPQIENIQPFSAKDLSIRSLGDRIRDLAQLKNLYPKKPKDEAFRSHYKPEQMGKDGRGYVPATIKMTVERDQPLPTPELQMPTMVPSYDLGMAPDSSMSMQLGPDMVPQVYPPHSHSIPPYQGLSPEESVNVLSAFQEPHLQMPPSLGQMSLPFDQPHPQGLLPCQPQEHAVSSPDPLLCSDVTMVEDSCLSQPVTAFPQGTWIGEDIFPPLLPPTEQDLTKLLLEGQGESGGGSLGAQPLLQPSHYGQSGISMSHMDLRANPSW
# Assay: Fluorescence polarization (FP) binding assay, STAT6
# Conditions: FP competition, 5 nM fluorescein-labeled tracer, 200 nM protein, PBS pH7.4; read-out: Binding STAT6
# In short: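 5 nM fluorescein tracer + 200 nM STAT protein; PBS pH 7.4, 0.01% BGG, 0.01% Tween-20, 2 mM DTT; shake 15 min, 1 h RT equilibrium; FP read; nonlinear fit for inhibition constants.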
row,Compound,Ki [µM]
1,"O=C(N[C@H]1CCC[C@H]2CC[C@@H](C(=O)N3CCc4ccccc4C3)N2C1=O)c1cc2cc(C(F)(F)P(=O)(O)O)ccc2[nH]1 [Compound 363, (difluoro(2-(((3S,6S,9aS)-5-oxo-3-(1,2,3,4-tetrahydroisoquinoline-2-carbonyl)octahydro-1H-pyrrolo[1,2-a]azepin-6-yl)carbamoyl)-1H-indol-5-yl)methyl)phosphonic acid]",> 10
2,"CC(C)C(=O)N1CC[C@H]2CC[C@@H](C(=O)N3CCc4ccccc4C3)N2C(=O)[C@@H](NC(=O)c2cc3cc(C(F)(F)P(=O)(O)O)ccc3[nH]2)C1 [Compound 364, (difluoro(2-(((5S,8S,10aR)-3-isobutyryl-6-oxo-8-(1,2,3,4-tetrahydroisoquinoline-2-carbonyl)decahydropyrrolo[1,2-a][1,5]diazocin-5-yl)carbamoyl)-1H-indol-5-yl)methyl)phosphonic acid]",> 10
3,"CN1CCC(C(=O)N2CC[C@H]3CC[C@@H](C(=O)N4CCc5ccccc5C4)N3C(=O)[C@@H](NC(=O)c3cc4cc(C(F)(F)P(=O)(O)O)ccc4[nH]3)C2)CC1 [Compound 365, (difluoro(2-(((5S,8S,10aR)-3-(1-methylpiperidine-4-carbonyl)-6-oxo-8-(1,2,3,4-tetrahydroisoquinoline-2-carbonyl)decahydropyrrolo[1,2-a][1,5]diazocin-5-yl)carbamoyl)-1H-indol-5-yl)methyl)phosphonic acid]",> 10
4,"CC(=O)N1CC[C@H]2CC[C@@H](C(=O)N3CCc4cc(Cl)ccc4C3)N2C(=O)[C@@H](NC(=O)c2cc3cc(C(F)(F)P(=O)(O)O)ccc3[nH]2)C1 [Compound 366, ((2-(((5S,8S,10aR)-3-acetyl-8-(6-chloro-1,2,3,4-tetrahydroisoquinoline-2-carbonyl)-6-oxodecahydropyrrolo[1,2-a][1,5]diazocin-5-yl)carbamoyl)-1H-indol-5-yl)difluoromethyl)phosphonic acid]",> 10
5,"CC(=O)N1CC[C@H]2CC[C@@H](C(=O)N3CCOCC3)N2C(=O)[C@@H](NC(=O)c2cc3cc(C(F)(F)P(=O)(O)O)ccc3[nH]2)C1 [Compound 367, ((2-(((5S,8S,10aR)-3-acetyl-8-(morpholine-4-carbonyl)-6-oxodecahydropyrrolo[1,2-a][1,5]diazocin-5-yl)carbamoyl)-1H-indol-5-yl)difluoromethyl)phosphonic acid]",> 10
6,"CC(=O)N1CC[C@H]2CC[C@@H](C(=O)N3CCCOCC3)N2C(=O)[C@@H](NC(=O)c2cc3cc(C(F)(F)P(=O)(O)O)ccc3[nH]2)C1 [Compound 368, ((2-(((5S,8S,10aR)-3-acetyl-8-(1,4-oxazepane-4-carbonyl)-6-oxodecahydropyrrolo[1,2-a][1,5]diazocin-5-yl)carbamoyl)-1H-indol-5-yl)difluoromethyl)phosphonic acid]",> 10
7,"CC(=O)N1CC[C@H]2CC[C@@H](C(=O)N3CCCc4ccccc4C3)N2C(=O)[C@@H](NC(=O)c2cc3cc(C(F)(F)P(=O)(O)O)ccc3[nH]2)C1 [Compound 369, ((2-(((5S,8S,10aR)-3-acetyl-6-oxo-8-(2,3,4,5-tetrahydro-1H-benzo[c]azepine-2-carbonyl)decahydropyrrolo[1,2-a][1,5]diazocin-5-yl)carbamoyl)-1H-indol-5-yl)difluoromethyl)phosphonic acid]",> 10
8,"CC(=O)N1CC[C@H]2CC[C@@H](C(=O)N(c3ccccc3)c3ccc(Br)cc3)N2C(=O)[C@@H](NC(=O)c2cc3cc(C(F)(F)P(=O)(O)O)ccc3[nH]2)C1 [Compound 370, ((2-(((5S,8S,10aR)-3-acetyl-8-((4-bromophenyl)(phenyl)carbamoyl)-6-oxodecahydropyrrolo[1,2-a][1,5]diazocin-5-yl)carbamoyl)-1H-indol-5-yl)difluoromethyl)phosphonic acid]",1 to 10
9,"CC(=O)N1CC[C@H]2CC[C@@H](C(=O)N(c3ccc(Cl)cc3)C3CCCCC3)N2C(=O)[C@@H](NC(=O)c2cc3cc(C(F)(F)P(=O)(O)O)ccc3[nH]2)C1 [Compound 371, ((2-(((5S,8S,10aR)-3-acetyl-8-((4-chlorophenyl)(cyclohexyl)carbamoyl)-6-oxodecahydropyrrolo[1,2-a][1,5]diazocin-5-yl)carbamoyl)-1H-indol-5-yl)difluoromethyl)phosphonic acid]",> 10
10,"CC(=O)N1CC[C@H]2CC[C@@H](C(=O)N3CCOc4ccccc43)N2C(=O)[C@@H](NC(=O)c2cc3cc(C(F)(F)P(=O)(O)O)ccc3[nH]2)C1 [Compound 372, ((2-(((5S,8S,10aR)-3-acetyl-8-(3,4-dihydro-2H-benzo[b][1,4]oxazine-4-carbonyl)-6-oxodecahydropyrrolo[1,2-a][1,5]diazocin-5-yl)carbamoyl)-1H-indol-5-yl)difluoromethyl)phosphonic acid]",> 10
11,"CC(=O)N1CC[C@H]2CC[C@@H](C(=O)N3CCc4cc(I)ccc4C3)N2C(=O)[C@@H](NC(=O)c2cc3cc(C(F)(F)P(=O)(O)O)ccc3[nH]2)C1 [Compound 373, ((2-(((5S,8S,10aR)-3-acetyl-8-(6-iodo-1,2,3,4-tetrahydroisoquinoline-2-carbonyl)-6-oxodecahydropyrrolo[1,2-a][1,5]diazocin-5-yl)carbamoyl)-1H-indol-5-yl)difluoromethyl)phosphonic acid]",1 to 10
12,"CC(=O)N1CC[C@H]2CC[C@@H](C(=O)N3CCc4ccccc4CC3)N2C(=O)[C@@H](NC(=O)c2cc3cc(C(F)(F)P(=O)(O)O)ccc3[nH]2)C1 [Compound 374, ((2-(((5S,8S,10aR)-3-acetyl-6-oxo-8-(2,3,4,5-tetrahydro-1H-benzo[d]azepine-3-carbonyl)decahydropyrrolo[1,2-a][1,5]diazocin-5-yl)carbamoyl)-1H-indol-5-yl)difluoromethyl)phosphonic acid]",> 10
13,"CC(=O)N1CC[C@H]2CC[C@@H](C(=O)N(C)c3ccc(Cl)cc3)N2C(=O)[C@@H](NC(=O)c2cc3cc(C(F)(F)P(=O)(O)O)ccc3[nH]2)C1 [Compound 375, ((2-(((5S,8S,10aR)-3-acetyl-8-((4-chlorophenyl)(methyl)carbamoyl)-6-oxodecahydropyrrolo[1,2-a][1,5]diazocin-5-yl)carbamoyl)-1H-indol-5-yl)difluoromethyl)phosphonic acid]",> 10
14,"CC(=O)N1CC[C@H]2CC[C@@H](C(=O)N(C)c3ccc(F)cc3)N2C(=O)[C@@H](NC(=O)c2cc3cc(C(F)(F)P(=O)(O)O)ccc3[nH]2)C1 [Compound 376, ((2-(((5S,8S,10aR)-3-acetyl-8-((4-fluorophenyl)(methyl)carbamoyl)-6-oxodecahydropyrrolo[1,2-a][1,5]diazocin-5-yl)carbamoyl)-1H-indol-5-yl)difluoromethyl)phosphonic acid]",> 10
15,"CC(=O)N1CC[C@H]2CC[C@@H](C(=O)N3Cc4ccc(Cl)cc4C3)N2C(=O)[C@@H](NC(=O)c2cc3cc(C(F)(F)P(=O)(O)O)ccc3[nH]2)C1 [Compound 377, ((2-(((5,8S,10aR)-3-acetyl-8-(5-chloroisoindoline-2-carbonyl)-6-oxodecahydropyrrolo[1,2-a][1,5]diazocin-5-yl)carbamoyl)-1H-indol-5-yl)difluoromethyl)phosphonic acid]",> 10
16,"CC(=O)N1CC[C@H]2CC[C@@H](C(=O)N3Cc4cccc(Cl)c4C3)N2C(=O)[C@@H](NC(=O)c2cc3cc(C(F)(F)P(=O)(O)O)ccc3[nH]2)C1 [Compound 378, ((2-(((5S,8S,10aR)-3-acetyl-8-(4-chloroisoindoline-2-carbonyl)-6-oxodecahydropyrrolo[1,2-a][1,5]diazocin-5-yl)carbamoyl)-1H-indol-5-yl)difluoromethyl)phosphonic acid]",> 10
17,"CN(C(=O)[C@@H]1CC[C@@H]2CCC[C@H](NC(=O)c3cc4cc(C(F)(F)P(=O)(O)O)ccc4s3)C(=O)N21)c1ccc(Cl)cc1 [Compound 379, ((2-(((3S,6S,9aS)-3-((4-chlorophenyl)(methyl)carbamoyl)-5-oxooctahydro-1H-pyrrolo[1,2-a]azepin-6-yl)carbamoyl)benzo[b]thiophen-5-yl)difluoromethyl)phosphonic acid]",> 10
18,"CN(C(=O)[C@@H]1CC[C@H]2CCC[C@H](NC(=O)c3cc4cc(C(F)(F)P(=O)(O)O)ccc4s3)C(=O)N21)c1ccc(Cl)cc1 [Compound 380, ((2-(((3S,65,9aR)-3-((4-chlorophenyl)(methyl)carbamoyl)-5-oxooctahydro-1H-pyrrolo[1,2-a]azepin-6-yl)carbamoyl)benzo[b]thiophen-5-yl)difluoromethyl)phosphonic acid]",> 10
19,"CC(=O)N1CC[C@H]2CC[C@@H](C(=O)N3CCCCC3)N2C(=O)[C@@H](NC(=O)c2cc3cc(C(F)(F)P(=O)(O)O)ccc3s2)C1 [Compound 381, ((2-(((5S,8S,10aR)-3-acetyl-6-oxo-8-(piperidine-1-carbonyl)decahydropyrrolo[1,2-a][1,5]diazocin-5-yl)carbamoyl)benzo[b]thiophen-5-yl)difluoromethyl)phosphonic acid]",> 10
